# Reference: patent US11679111B2, “Fatty acid synthase inhibitors” (priority 2016, dated 2023)
# Where two headings read alike, the source gives them in different places.
# Experiments:
# [1] = system: FASN activity in HepG2 cells; experiment: [3H] glucose and acetate incorporation into lipids in HepG2 cells; assay type: cell-based; details: for EC50 / IC50: Homo sapiens
# Method: To specifically identify inhibitors of FASN targeting its nucleotide binding pockets Cibacron blue Sepharose was utilized. This medium has been used previously to purify NAD and NADP binding proteins from crude tissues extracts (Miyaguchi et al., 2011; Muratsubaki et al., 1994). FASN enriched extract from lactating pig mammary gland was bound to the resin and labeled with cysteine reactive fluorescein. […] Next, the molecules were tested for their ability to inhibit FASN activity in a HepG2 cell based assay that measured the incorporation of ^3H glucose into lipids (FIG. 1B and FIG. 9).
# Incorporation of radiolabeled glucose or acetate in total lipids was measured according to published methods (Haystead and Hardie, 1986). HepG2 cells (80% confluent in 12 wells plates) were starved overnight in MEM Alpha, the medium was then changed with DMEM medium containing 0.1 g/L glucose 10% FBS and 5 μM insulin and 1 μCi 3-[^3H] D-glucose or 1 μCi [^3H]-acetate in addition to different concentrations of each compound. After incubation for 1 hour at 37° C., 5% CO2, the cells were washed with ice cold PBS and detached by treating with 100 μl trypsin for 10 min then 1 ml of ice cold PBS was added. The cells suspension was then sonicated for 3 times in 30 seconds intervals and kept on ice. From each well 1 ml of cell lysate was added to a 4 ml scintillation vial and 2 ml of MicroScint-E was added. The vials were mixed thoroughly then centrifuged for 30 min at 3000 rpm and the ^3H radioactivity was measured by liquid scintillation counting.
# [2] = system: ATP binding proteins of BT474 cells lysate; experiment: Elution of ATP Sepharose loaded with BT474 cells lysate; details: 1, 2.5, 5 and 10 mM
# Method: FIGS. 13A-13D illustrate the characterization of purified FASN and Fasnall elution of ATP Sepharose. […] Lane 6 and 7 are 10 mM Staurosporine and 50 mM ATP, respectively, as positive controls.
# [3] = system: MCF7, MDA-MB-468, BT474 and SKBR3 cells; experiment: Proliferation assay (Hoechst DNA content), aggressive breast cancer cell lines; assay type: cell-based; details: MCF7, MDA-MB-468, BT474, SKBR3
# Method: (§1) MCF10A (5,000 cells/well), MCF7 (7,500 cells/well), MDA-MB-468 (5,000 cells/well), BT474 (7,500 cells/well), and SKBR3 (5,000 cells/well) were seeded in 96 well plates with 10% FBS 4 g/L glucose DMEM media except for MCF10A which was DMEM/F12 media. After 24 hours, cells were treated with different concentration of HS-106 or C75. Every 24 hours for five days, media from one of the plates was removed and plate was frozen at −80° C. After collecting all the time points, to each well 100 μl ddH2O was add and the plates were frozen again. Then 100 μI of Hoechst 33258 solution made in TNE buffer (1 μl from Hoechst stock (1 mg/ml in 1:4 DMSO:H20) in 1 ml of TNE (which contains 10 mM Tris, 2M NaCl and 1 mM Na2EDTA) and fluorescence was measured at Ex/Em: 355/460.
# MCF10A cells = experiment: Proliferation assay (Hoechst DNA content), non-tumorigenic cell line; assay type: cell-based
# Method: as §1
# HIV-1 = details: for HIV-1 p24 production reduced by: PBMC
# Method: Primary cell experiments were approved by the Ohio State University Institutional Review Board, protocol #2014H0001. Peripheral blood mononuclear cells (PBMC) were isolated from healthy donor by Ficoll-Paque centrifugation, stimulated in complete RPMI 1640 medium (Gibco, Carlsbad, Calif.) containing 10% FBS, 100 μg/mL penicillin/streptomycin and supplemented with 5 μg/mL phytohemaglutinin (PHA; Gibco) for 48 h, and maintained thereafter in complete RPMI medium supplemented with 20U/mL of interleukin-2 (Gibco). PBMCs were seeded in 24-well plate (2×10^5 cells/well) and triplicate wells were treated with 10 or 50 μM C75, HS-106, or with DMSO and subsequently infected with 10 ng/mL p24 equivalents of HIV-1LucR-T2A virus, which is derived from NL4-3 (Edmonds et al., 2010). Cells were washed 24 h post infection. Supernatants were collected 4 days post infection and p24 content analyzed by quantitative ELISA (Zeptometrix).
# [4] = Method: To test if HS-106 is toxic to mice, two animal studies were initiated. In an acute toxicity study, mice received 80, 20, or 5 mg/kg HS-106 IP on day 1 and 3, and blood was collected on day 4.
# In an acute toxicity study, FVB/J mice received 10, 40, or 160 pmol/kg HS-106 via intraperitoneal injection (IP) on days 1 and 3, and blood was collected on day 4. […] To test for the long term effects of HS-106, mice received biweekly IP injections of 10, 20, or 30 pmol/kg HS-106 for eight weeks. […] Next, we carried out pharmacokinetic (PK) studies to determine the uptake and bio-distribution of HS-106 in MMTV-Neu mice by LC-MS (FIG. 17).
# Female FVB/J mice aged to 10-12 weeks (Jackson Labs, Maine) were intraperitonealy injected with HS-106 at the described doses twice weekly. Mice were monitored for signs of toxicity by standard Mouse Phase 1 Unit (MP1U; https://www.med.unc.edu/mousephase1) protocols and approved by UNC—CH IACUC. Prior to end of the study 150 μl of whole blood was drawn via submandibular bleed and used to determine hematology values, liver, and kidney functions. To determine the long term effects of HS-106 on mice weight, female FVB/J mice aged 12-16 weeks were treated with the indicated concentrations of HS-106 twice weekly by intraperitoneal injection for 60 days. Mice body mass was assessed weekly and were observed every day for signs of toxicity such as labored breathing and hunched posture.
# Female FVB/J mice aged to 10-12 weeks (Jackson Labs, Maine) were intraperitonealy (IP) injected twice weekly with HS-106 at the described doses. Mice were monitored for signs of toxicity by standard Mouse Phase 1 Unit (M1P1U; https://www.med.unc.edu/mousephase1) protocols and approved by UNC—CH IACUC. Prior to end of the study 150 μl of whole blood was drawn via submandibular bleed and used to determine hematology values, liver, and kidney functions by HemaTrue Hematology Analyzer (HESKA, Loveland, Colo., USA) and VITROS® 350 Chemistry System (J&J, New Brunswick, N.J.) according to manufacturer protocols. To determine the long term effects of HS-106 on mice weight, female FVB/J mice aged 12-16 weeks were treated with the indicated concentrations of HS-106 twice weekly by IP injection for 60 days. Mice body mass was assessed weekly, and mice were observed daily for signs of toxicity (e.g. labored breathing and hunched posture).
smiles,measurement,setting,value
"Cc1sc2ncnc(NC3CCN(Cc4ccccc4)C3)c2c1C (racemic) [HS-106, N-(1-benzylpyrrolidin-3-yI)-5,6-dimethylthieno[2,3-d]pyrimidin-4-amine]",inhibition of tritiated acetate incorporation into lipids,"[1]; FIG. 2D, cell line not stated",inhibit the incorporation of tritiated acetate into lipids
same,"rank among the 13 molecules tested, 3H glucose incorporation into lipids",[1]; HepG2 cells,most potent inhibitor
same,EC50,"[1]; HepG2, read-out: EC50, blockade of acetate incorporation into total lipids",147 nM
same,EC50,"[1]; HepG2, read-out: EC50, blockade of glucose incorporation into total lipids",213 nM
same,IC50,"[1]; HepG2, read-out: IC50, incorporation of tritiated acetate into lipids",147 nM
same,IC50,"[1]; HepG2, read-out: IC50, incorporation of tritiated glucose into lipids",213 nM
same,elution of proteins from ATP Sepharose,[2],does not elute any proteins more than DMSO
same,inhibition of proliferation,[3],inhibited the proliferation of aggressive cell lines with similar potency to C75
same,inhibition of proliferation,MCF10A cells,lower activity
same,HIV-1 p24 production reduced by,HIV-1; 10 μM,87%
same,HIV-1 p24 production reduced by,HIV-1; 50 μM,96%
same,reduction of HIV-1 p24 production,"HIV-1; primary PBMCs, 10 μM",approximately 10 fold
same,acute toxicity,[4]; 160 pmol/kg IP days 1 and 3,toxic
same,acute toxicity,[4]; 80 mg/kg IP day 1 and 3,acutely toxic
same,"acute toxicity, blood parameters","[4]; 5 and 20 mg/kg IP day 1 and 3, blood day 4","did not affect white blood cell count, hemoglobin levels, kidney, or liver function"
same,"acute toxicity, blood parameters","[4]; 10 and 40 pmol/kg IP days 1 and 3, blood day 4","well tolerated with no adverse effects on white blood cell counts, hemoglobin levels, kidney, or liver functions"
same,weight change,"[4]; BIW IP injection, assessed weekly",dose not induce weight change
